# Reference: paper PMC10380385, “Synthesis, In Vitro, and In Vivo Investigations of Pterostilbene-Tethered Analogues as Anti-Breast Cancer Candidates” (International Journal of Molecular Sciences, 2023)
# Experiments:
# [1] = tested on: MDA-MB-231 cells; assay: DNA content / cell cycle of PI-stained cells by flow cytometry, MDA-MB-231; assay type: cell-based, human; settings: MDA-MB-231, 10.0 μM
# Text: It is commonly acknowledged that […] DNA fragmentation is a crucial hallmark of cell apoptosis. Next, we assessed the influence of 2L on the DNA content of PI-stained BC cells using flow cytometry. […] In turn, treatment with 2L led to an apparent enhancement of the number of MCF-7 cells, from 51.7% to 63.0%. […] An augmentation of DNA distribution in the SubG1 peak was representative of the occurrence of apoptosis in 2L-exposed groups, which further confirmed that 2L could induce the apoptosis of BC cells. In addition, the quantitative analysis of DNA distribution for the subG1, G0/G1, S, and G2/M phases appeared to show similar alterations (Figure 4B,D).
# [2] = tested on: MDA-MB-231 xenograft; assay: MDA-MB-231-derived xenograft mouse model; assay type: in vivo; settings: for tumor growth inhibition (TGI): intraperitoneal, every other day, 10 treatments, by tumor weight
# Experimental: BALB/c nude mice (female, 6–7 weeks) were purchased from Changsheng Biotechnology Co., Ltd. (Liaoning, China). MDA-MB-231 cells (5 × 10^6 cells/mouse) were injected subcutaneously into the right back of the nude mice. When the tumor volume reached approximately 55 mm^3, the female mice were randomly divided into two treatment groups (25, 50 mg/kg) and a vehicle group (equal volume of normal saline) with five mice in each group. Throughout the experiment, 2L and saline were intraperitoneally injected every other day for 10 treatments. At the same time, the changes in tumor volume and body weight of the nude mice were tracked and recorded. The tumor volumes were assessed using the formula: V (mm^3) = (length × width^2)/2. At the end of the experimental period, tumor tissues were harvested, weighed, and collected. The TGI rate was calculated by the average tumor weight of the 2L-treated and control groups.
structure (smiles),measurement,setting,value
"COc1cc(/C=C/c2ccc(OCCCN3CCCCC3)cc2)cc(OC)c1 [Compound 2L, (E)-1-(3-(4-(3,5-dimethoxystyryl)phenoxy)propyl)piperidine]",percentage of cells in subG1,[1],7.99%
same,proportion of cells in G0/G1 phase,[1],61.7%
same,tumor growth inhibition (TGI),[2]; 25 mg/kg,42.0%
same,tumor growth inhibition (TGI),[2]; 50 mg/kg,69.9%
same,toxicity in nude mice (body weight fluctuation),"[2]; 25 and 50 mg/kg, whole study",no obvious toxicity
same,level of Bcl-2 protein in tumor tissues,"[2]; Western blot, vs control group",decreased
same,protein expression of Bax in tumor tissues,"[2]; Western blot, vs control group",noticeably increased
same,protein expression of cleaved PARP in tumor tissues,"[2]; Western blot, vs control group",noticeably increased
